According to a melting point compilation (Tetko et al.; mined from patent text by program, amines drawn as free bases though some values may be those of a salt):

Compound | melting point
CCCC(=O)NCCCc1cccc(OCC2CC2)c1 | 36 to 37 °C
O=C(Nc1cnc(-n2nc(C(F)(F)F)cc2C2CC2)nc1)c1c(F)cccc1F | 280 to 281 °C
CN(C)CCCn1c(=O)c2c(N)c3c(=O)c4ccccc4c(=O)c3c(N)c2c1=O | 215 to 216 °C
CCCCNc1ccc2nn(CCC)c(=O)n2n1 | 183 to 185 °C
Cc1c(CC(=O)OCCO[N+](=O)[O-])cc(-c2ccc(S(C)(=O)=O)cc2)n1-c1ccc(F)cc1 | 110 to 112 °C
CC(=O)On1c(=O)c(=O)[nH]c2cc(Cl)ccc21 | 219 °C
CCCCCCCCCCC(=O)Nc1cc(F)cc2c1OCCC21SC(=O)NC1=O (stereo unspecified) | 69 to 71 °C
Cc1cc2ncnn2nc1OCCOCCN1CCN(C(c2ccccc2)c2ccccc2)CC1 | 71 to 72 °C
C=CCOC(=O)CCc1cc(C(C)(C)C)c(O)c(C(C)(C)C)c1 | 40 °C
C1=C(CCc2ccco2)CCN(Cc2n[nH]c3c2CCc2ccccc2-3)C1 | 205 to 208 °C
CN(C)c1ccc(-c2cc3ncc(C#N)c(Cl)c3s2)cc1 | 270 to 272 °C
COc1ccc2c(c1Br)CCC1C(=O)N(C)C(=O)C21 (stereo unspecified) | 196 to 199 °C
N#CNc1ncc(-c2ccncc2)cn1 | > 300 °C
CCOC(=O)c1cc(OC)c2c(C)c(CCN(CC)CC)c(=O)oc2c1Cl | 147 to 148 °C
CCCNC(=NC(=Nc1ccccc1)N1CCOCC1)C(C)C | 122 to 124 °C
Cc1c(C(C)N(O)C(N)=O)sc2ccccc12 (stereo unspecified) | 130 to 132 °C
CC(C)OC(=O)Nc1cc(-c2ccnc3c(C(=O)c4cccs4)cnn23)ccc1N(C)C | 164 to 165 °C
CS(=O)(=O)Nc1cc([C@@H](O)CNC2CCN(c3ccc(S(=O)(=O)NCC(=O)O)cc3)CC2)ccc1O | 170 to 172 °C
Cc1cc(-c2ccc(C(F)(F)F)cc2)cn2c(C(=O)O)cnc12 | 211 °C
CCCCCS(=O)(=O)NC(=O)/C(=C/c1ccc(OCCOC)cc1Oc1ncc(Cl)cc1Cl)CC | 118 °C
CCOC(=O)c1cccc2c1C(=O)N(C)Cc1c(C(=O)OCC)ncn1-2 | 136 to 140 °C

Compound | melting point
Nc1ccc(C(=O)c2cc(F)ccc2F)cc1 | 101 to 103 °C
CSC1CC(=O)N1CC(=O)c1ccccc1 (stereo unspecified) | 43 to 45 °C
O=C(O)[C@H]1NCC[C@@H](O)[C@@H]1O | 253 to 260 °C
Cc1ccc2c3c(c(=O)oc2c1)CN(CCN1CC2CCCC(C2)C1)CC3 | 150 to 152 °C
CS(=O)(=O)N1Cc2cccc(-c3ccc4cnc(Nc5ccc(C6CN(CC(N)=O)C6)cc5)nn34)c2C1 | 216 to 218 °C
Cc1cccc(C)c1NC(=O)CN1CCN(CC(O)C2COc3ccccc3O2)CC1 (stereo unspecified) | 175 to 176 °C
O=C(O)C1=Cc2cc(Br)cc(Cl)c2OC1C(F)(F)F (stereo unspecified) | 221 to 222 °C
COc1ccc(C(=O)N2CCCCC2)c(NC(=O)N[C@@H](Cc2ccc(NC(=O)c3c(Cl)cccc3Cl)cc2)C(=O)O)c1 | 176 °C
CC(C)N1C(=O)c2ccccc2N(S(C)(=O)=O)S1(=O)=O | 156 to 158 °C
NC(=O)C1=NN(c2cccc(COCC(F)(F)C(F)(F)F)c2)C(c2ccccc2F)N1 (stereo unspecified) | 151 to 153 °C
Cc1c(C(N)=O)sc2cncc(Oc3ccc(Br)cc3)c12 | 78 to 80 °C
C[C@@H]1SC(N)=N[C@H]1Cc1ccccc1 | 89 °C
CCCc1cc(=O)[nH]c2c3c(cc(O)c12)OC(C)C(C)C3=O (stereo unspecified) | 295 to 296 °C
CCCCCCCCCCCCCCCCOCC(CO)OC (stereo unspecified) | 56 °C
C#CCOc1nc(C(F)(F)F)cc(=O)n1-c1cc(C(=O)OC(C)C)c(Cl)cc1F | 117 to 119 °C
S=C=NCCC1CC(c2ccccc2)=NO1 (stereo unspecified) | 54 to 56 °C
CCc1cccc(C)c1NC(=O)CCBr | 149 to 150 °C
CC(C)CCC1C(=O)NS(=O)(=O)N1C (stereo unspecified) | 212 to 214 °C
O=C(O)c1ccc2c(COc3cccnc3)csc2c1 | 248 to 250 °C
CCCCc1ncc(/C=C(\Cc2cccs2)C(=O)O)n1Cc1cccc(Cl)c1Cl | 184 to 185 °C

Results, then the compound that gave them:

melting point | Compound
173 to 175 °C | Cc1ccnc(NC(=O)c2c(-c3ccc(F)cc3)c(-c3ccc(F)cc3)c(C=O)n2C(C)C)n1
124 to 125 °C | CC(=O)OC1C(N(C)S(C)(=O)=O)c2cc(OCc3ccccc3)ccc2OC1(C)C (stereo unspecified)
88 to 88.3 °C | CCOC(=O)C(O)(CC(=O)c1ccc(-c2ccccc2)cc1)C(=O)OCC
210 to 212 °C | CC(=O)N1CCc2c(c(=O)c3cccnc3n2-c2ccccc2)C1
234 to 236 °C | O=C(Nc1ccc(CCc2ccc(Cl)c(Cl)c2)cc1)C1CSc2ccccc2C1=O (stereo unspecified)
78.5 to 79.5 °C | COC(c1cc(C)no1)c1ccccc1COc1cc(Cl)ccc1Cl (stereo unspecified)
159 to 160 °C | COc1ccc(-c2c(N[C@H](C)c3ccccc3)c(=O)c2=O)cc1
71 to 72 °C | COCc1nc(C(C)(C)O)c(C(=O)OCOC(=O)C(C)(C)C)n1Cc1ccc(-c2ccccc2-c2nnn[nH]2)cc1
248 to 250 °C | CCn1c(-c2cccnc2)nc(-c2ccncc2)c1-c1ccc(Cl)cc1
198 to 199 °C | O=C(O)c1cccc(-c2ccc3c(c2)N(Cc2cc(Cl)ccc2Cl)CC3)c1
176 to 177 °C | CCCSc1ncc(C(=O)N[C@H](Cc2ccccc2)C(=O)O)n1Cc1ccccc1Cl
70 to 90 °C | Cc1cc(OCC(=O)NCc2ccccc2)ccc1N1CC(=O)NS1(=O)=O
185 to 186 °C | COc1ccc(-c2cc(C(=O)C(F)(F)F)[nH]c2-c2ccc(OC)cc2)cc1
144 °C | COc1ccc(S(=O)(=O)Nc2ccc(Cl)cc2Cc2c(F)cccc2F)cc1OC
176 to 178 °C | O=S(=O)(CCCCCOc1ccc(C2=C(c3ccccc3)CCCc3cc(O)ccc32)cc1)CCCC(F)(F)C(F)(F)F
257 to 259 °C | CN(C)c1ccc(CCc2ccc3c(=O)[nH]ncc3c2)cc1
206 to 208 °C | O=c1ccn(-c2cccc(C(F)(F)F)c2)nc1-c1c[nH]nc1-c1ccccc1
168 °C | CCCCc1nc2cscc2n1Cc1ccc(-c2ccccc2C(=O)O)cc1
150 to 151 °C | O=C1C(Cc2ccccc2)C(C(F)(F)F)=Nc2ccccc2N1Cc1ccccc1 (stereo unspecified)
60 to 65 °C | CC(C)CCc1c(-c2ccc(S(C)(=O)=O)cc2)cnn(-c2cccc(Cl)c2)c1=O
132 to 135 °C | CC(C)(Oc1ccc(Cl)cc1)c1ccnc2ncnn12
94 to 95 °C | C(=C\c1nc(COc2ccc(CCCCn3cncn3)cc2)co1)/c1ccccc1
124 to 125 °C | Cc1cccc(Nc2ccccc2C(=O)NO)c1C
181 to 182 °C | COc1ccc(S(=O)(=O)n2ccc3cccc(-c4ccc(F)cc4)c32)cc1
69.5 to 71.5 °C | Brc1cccc2c(-c3ccccc3)coc12
199 to 200 °C | O=Cc1cccc2cc3c(cc12)sc1ccccc13
150 to 152 °C | O=C(c1ccc(Br)cc1)C(Br)C(Br)c1cccc(Br)c1 (stereo unspecified)
69 to 71 °C | COc1cc2c(c(C(C)C)c1OC)C(=O)N(CSc1nnnn1-c1ccccc1)S2(=O)=O
96 to 100 °C | OC1Cc2ccc3ccccc3c21 (stereo unspecified)
94 to 96 °C | COc1ccccc1C(=O)c1ccc(OC)c(Cl)c1Cl
